In patent publication US20100056596A1, “RESISTANCE-REPELLENT RETROVIRAL PROTEASE INHIBITORS” (Sequoia Pharmaceuticals, priority 2004, published 2010):
Read-outs that look alike come from different tables or passages of the source.

Experiments:
HIV-1 isolates, WT = assay: In vitro drug sensitivity of HIV-1 laboratory isolates, WT; format: cell-based
Experimental: (§1) In Vitro Drug Sensitivity of HIV-1 Laboratory Isolates to PIs
(§2) The sensitivities of HIV-1 isolates against compounds of the invention were determined as previously described with minor modifications (Shiraska et al., Proc. Natl. Acad. Sci. USA, 92, 2398-2402 (1995)).

HIV-1 isolates, Mutant 8 = assay: In vitro drug sensitivity of HIV-1 laboratory isolates, Mutant 8; format: cell-based
Experimental: as §1, §2

wild type HIV-1 protease = target: T1, wild type HIV-1 protease (Human immunodeficiency virus type 1 group M subtype B, UniProt P04585); assay: Ki against wild type (WT) HIV-1 protease; format: biochemical
T1 construct: over 45 of the 99 amino acids of the HIV protease monomer

HIV-1 protease Mutant 8 = HIV-1 protease Mutant 8 (Human immunodeficiency virus type 1, UniProt P04585); assay: Ki against HIV-1 protease Mutant 8; format: biochemical
HIV-1 isolates, Mutant 9 = assay: In vitro drug sensitivity of HIV-1 laboratory isolates, Mutant 9; format: cell-based
Experimental: as §1, §2

HIV-1 protease Mutant 9 = HIV-1 protease Mutant 9 (Human immunodeficiency virus type 1, UniProt P04585); assay: Ki against HIV-1 protease Mutant 9; format: biochemical
[1] = Human immunodeficiency virus 1, read-out: IC50 Mutant 8
[2] = Human immunodeficiency virus 1, read-out: IC50 Mutant 9
[3] = Human immunodeficiency virus 1, HIV-1 isolate WT
[4] = Mutant 8, read-out: IC50 Mutant 8
[5] = Mutant 9, read-out: IC50 Mutant 9

SMILES	IC50 (HIV-1 isolates, WT; Human immunodeficiency virus 1)	IC50 (HIV-1 isolates, Mutant 8; [1])	Ki (wild type HIV-1 protease; WT)	Ki (HIV-1 protease Mutant 8; Mutant 8)	IC50 (HIV-1 isolates, Mutant 9; [2])	Ki (HIV-1 protease Mutant 9; Mutant 9)	IC50 (HIV-1 isolates, WT; [3])	Ki (wild type HIV-1 protease; wild type HIV-1 protease)	Ki (HIV-1 protease Mutant 8; HIV-1 protease Mutant 8)	Ki (HIV-1 protease Mutant 9; HIV-1 protease Mutant 9)	IC50 (HIV-1 isolates, WT; WT)	IC50 (HIV-1 isolates, Mutant 8; [4])	IC50 (HIV-1 isolates, Mutant 9; [5])
CC(C)CN(CC(O)C(Cc1ccccc1)NC(=O)OC1COC2OCCC12)S(=O)(=O)c1ccc2oc(CN)cc2c1 (stereo not drawn) [Compound 105]	7 nM	30 nM	< 0.1 nM	< 0.3 nM	220 nM	1.9 nM	–	–	–	–	–	–	–
CC(C)CN(CC(O)C(Cc1ccccc1)NC(=O)OC1COC2OCCC12)S(=O)(=O)c1ccc2occ(CNC(=O)c3ccccc3)c2c1 (stereo not drawn) [Compound 114, (3-{[3-(Benzoylamino-methyl)-benzofuran-5-sulfonyl]-isobutyl-amino}-1-benzyl-2-hydroxy-propyl)-carbamic acid hexahydro-furo[2,3-b]furan-3-yl ester]	4 nM	23 nM	0.1 nM	< 0.3 nM	30 nM	< 0.1 nM	–	–	–	–	–	–	–
CC(C)CN(CC(O)C(Cc1ccccc1)NC(=O)OC1COC2OCCC12)S(=O)(=O)c1ccc2onc(CN(C)S(C)(=O)=O)c2c1 (stereo not drawn) [Compound 210]	–	51 nM	–	–	300 nM	–	3 nM	< 0.1 nM	< 0.3 nM	1.3 nM	–	–	–
CC(C)CN(CC(O)C(Cc1ccccc1)NC(=O)OC1COC2OCCC12)S(=O)(=O)c1ccc2[nH]nc(NC3CCCCC3)c2c1 (stereo not drawn) [Compound 304]	6.1 nM	12 nM	< 0.1 nM	< 0.3 nM	100 nM	0.93 nM	–	–	–	–	–	–	–
CC(C)CN(CC(O)C(Cc1ccccc1)NC(=O)OC1COC2OCCC12)S(=O)(=O)c1ccc2onc(CNCc3ccccc3)c2c1 (stereo not drawn) [Compound 232]	–	55 nM	–	–	80 nM	–	7 nM	< 0.1 nM	< 0.3 nM	0.11 nM	–	–	–
CC(C)CN(CC(O)C(Cc1ccccc1)NC(=O)OC1COC2OCCC12)S(=O)(=O)c1ccc2onc(Cn3ccnc3)c2c1 (stereo not drawn) [Compound 216]	–	32 nM	–	–	250 nM	–	20 nM	< 0.1 nM	< 0.3 nM	1.7 nM	–	–	–
COCc1noc2ccc(S(=O)(=O)N(CC(C)C)CC(O)C(Cc3ccccc3)NC(=O)OC3COC4OCCC34)cc12 (stereo not drawn) [Compound 244]	–	40 nM	–	–	305 nM	–	4.1 nM	< 0.1 nM	< 0.3 nM	0.49 nM	–	–	–
CC(C)CN(CC(O)C(Cc1ccccc1)NC(=O)OC1COC2OCCC12)S(=O)(=O)c1ccc2onc(CNC(=O)C(F)(F)F)c2c1 (stereo not drawn) [Compound 234]	–	23 nM	–	–	85 nM	–	16 nM	< 0.1 nM	< 0.3 nM	0.36 nM	–	–	–
CC(C)CN(C[C@@H](O)[C@H](Cc1ccccc1)NC(=O)OC1COC2OCCC12)S(=O)(=O)c1ccc2occ(CN3CCOCC3)c2c1 (stereo partly drawn) [Compound 108]	–	–	< 0.1 nM	< 0.3 nM	–	1.5 nM	–	–	–	–	1.5 nM	38 nM	420 nM
CCOC(=O)C(C)NCc1noc2ccc(S(=O)(=O)N(CC(C)C)CC(O)C(Cc3ccccc3)NC(=O)OC3COC4OCCC34)cc12 (stereo not drawn) [Compound 206]	–	30 nM	–	–	160 nM	–	5 nM	< 0.1 nM	< 0.3 nM	0.33 nM	–	–	–
CC(C)CN(CC(O)C(Cc1ccccc1)NC(=O)OC1COC2OCCC12)S(=O)(=O)c1ccc2occ(CO)c2c1 (stereo not drawn) [Compound 124]	8.7 nM	12 nM	< 0.1 nM	< 0.3 nM	130 nM	0.26 nM	–	–	–	–	–	–	–
CC(=O)OCc1coc2ccc(S(=O)(=O)N(CC(C)C)CC(O)C(Cc3ccccc3)NC(=O)OC3COC4OCCC34)cc12 (stereo not drawn) [Compound 122]	5.9 nM	11 nM	< 0.1 nM	< 0.3 nM	110 nM	0.27 nM	–	–	–	–	–	–	–
CC(C)CN(C[C@@H](O)[C@H](Cc1ccccc1)NC(=O)OC1COC2OCCC12)S(=O)(=O)c1ccc2c(c1)C(=O)CCO2 (stereo partly drawn)	3.5 nM	42 nM	< 0.1 nM	0.42 nM	625 nM	4.9 nM	–	–	–	–	–	–	–
CCCC[S+]([O-])Cc1coc2ccc(S(=O)(=O)N(CC(C)C)C[C@@H](O)[C@H](Cc3ccccc3)NC(=O)OC3COC4OCCC34)cc12 (stereo partly drawn) [Compound 111]	8 nM	24 nM	< 0.1 nM	< 0.3 nM	49 nM	0.16 nM	–	–	–	–	–	–	–
Cc1cc2cc(S(=O)(=O)N(CC(C)C)CC(O)C(Cc3ccccc3)NC(=O)OC3COC4OCCC34)ccc2o1 (stereo not drawn) [Compound 102]	3.7 nM	90 nM	< 0.1 nM	< 0.3 nM	> 400 nM	0.96 nM	–	–	–	–	–	–	–
CCCC[S+]([O-])Cc1noc2ccc(S(=O)(=O)N(CC(C)C)CC(O)C(Cc3ccccc3)NC(=O)OC3COC4OCCC34)cc12 (stereo not drawn) [Compound 208]	–	36 nM	–	–	60 nM	–	3.9 nM	< 0.1 nM	< 0.3 nM	< 0.1 nM	–	–	–
CC(C)CN(CC(O)C(Cc1ccccc1)NC(=O)OC1COC2OCCC12)S(=O)(=O)c1ccc2onc(CNC(=O)c3ccccc3)c2c1 (stereo not drawn) [Compound 221]	–	14 nM	–	–	16 nM	–	7 nM	< 0.1 nM	< 0.3 nM	< 0.1 nM	–	–	–
Cc1n[nH]c2ccc(S(=O)(=O)N(CC(C)C)CC(O)C(Cc3ccccc3)NC(=O)OC3COC4OCCC34)cc12 (stereo not drawn) [Compound 301, {1-Benzyl-2-hydroxy-3-[isobutyl-(3-methyl-1H-indazole-5-sulfonyl)-amino]-propyl}-carbamic acid hexahydro-furo[2,3-b]furan-3-yl ester]	8 nM	70 nM	< 0.1 nM	< 0.3 nM	80 nM	0.23 nM	–	–	–	–	–	–	–
CC(C)CN(CC(O)C(Cc1ccccc1)NC(=O)OC1COC2OCCC12)S(=O)(=O)c1ccc2onc(CNC(=O)c3ccco3)c2c1 (stereo not drawn) [Compound 240]	–	11 nM	–	–	20 nM	–	6.5 nM	< 0.1 nM	< 0.3 nM	0.26 nM	–	–	–
CC(C)CN(C[C@@H](O)[C@H](Cc1ccccc1)NC(=O)OC1COC2OCCC12)S(=O)(=O)c1ccc2occ(CNC(=O)c3ccco3)c2c1 (stereo partly drawn) [Compound 125]	–	–	< 0.1 nM	< 0.3 nM	–	< 0.1 nM	–	–	–	–	5 nM	9 nM	31 nM
COCc1coc2ccc(S(=O)(=O)N(CC(C)C)CC(O)C(Cc3ccccc3)NC(=O)OC3COC4OCCC34)cc12 (stereo not drawn) [Compound 123]	4 nM	19 nM	0.13 nM	< 0.3 nM	240 nM	0.22 nM	–	–	–	–	–	–	–
